Results reported in PMC8037669, “Discovery of Novel Sultone Fused Berberine Derivatives as Promising Tdp1 Inhibitors” (Molecules, 2021).
“And” between values parts separate entries of the source, which are not always exact repeats. Equal entries are not always repeated. “Also recorded” adds a separate entry of the source. Where two headings read alike, the source gives them in different places.

Legend:
[1] = biological target: T1, tyrosyl-DNA phosphodiesterase 1 (Tdp1) (Homo sapiens, UniProt Q9NUW8); assay: Tdp1 activity, fluorescent oligonucleotide biosensor (FAM/BHQ1) assay; format: biochemical; conditions: purified Tdp1 1.5 nM, 50 nM biosensor; read-out: Tdp1 inhibiting activity IC50
T1 construct: Purified Tdp1 (1.5 nM) triggered the reaction
Method: In this work, newly synthesized sultones were tested for their inhibition of Tdp1. Tdp1 activity was measured using a fluorescent biosensor as previously described. The biosensor is an oligonucleotide with a fluorophore (FAM) at the 5′-end and a fluorescence quencher (BHQ1) at the 3′-end. Due to the activity of the enzyme, the quencher is removed, which leads to an increase in the fluorescence intensity. Inhibitors prevent the removal of the quencher, thus reducing the fluorescence intensity.
Tdp1 activity was detected, as described in the work in Reference, and consists of fluorescence intensity measurement in a reaction of quencher removal from a fluorophore quencher–coupled DNA oligonucleotide catalyzed by Tdp1. The reaction was carried out at different concentrations of inhibitors (the control samples contained 1% of DMSO). The reaction mixtures contained Tdp1 buffer (50 mM Tris-HCl pH 8.0, 50 mM NaCl, and 7 mM β-mercaptoethanol), 50 nM biosensor, and an inhibitor being tested. Purified Tdp1 (1.5 nM) triggered the reaction. The biosensor (5′-[FAM] AAC GTC AGGGTC TTC C [BHQ]-3′) was synthesized in the Laboratory of Biomedical Chemistry at the Institute of Chemical Biology and Fundamental Medicine (Novosibirsk, Russia).
The reactions were incubated on a POLARstar OPTIMA fluorimeter (BMG LABTECH, GmbH, Ortenberg, Germany) to measure fluorescence every 55 s (ex. 485/em. 520 nm) during the linear phase (here, data from minute 0 to minute 8). The values of IC50 were determined using a six-point concentration response curve in a minimum of three independent experiments and were calculated using MARS Data Analysis 2.0 (BMG LABTECH, Ortenberg, Germany).

[2] = Cytotoxicity, EZ4U Cell Proliferation and Cytotoxicity Assay; format: cell-based, human; conditions: human
Method: (§1) All compounds have no intrinsic toxicity in the concentration range up to 100 μM (Figure 8) in HeLa cells, with the exception of 16a and berberine, which are toxic at concentrations above 20 μM. 16a is slightly toxic (CC50 ~ 100 μM) and differs from non-toxic 10a in the presence of a double bond in the sultone cycle. The original berberine 1 is toxic to HeLa cells with a cytotoxic concentration (CC50) of 20 μM, which is consistent with the literature data.
(§2) Cytotoxicity of the compounds to HeLa (human cervical cancer) cell line was examined using the EZ4U Cell Proliferation and Cytotoxicity Assay (Biomedica, Vienna, Austria), according to the manufacturer’s protocols. The cells were grown in Iscove’s modified Dulbecco’s medium (IMDM) with 40 μg/mL gentamicin, 50 IU/mL penicillin, 50 μg/mL streptomycin (MP Biomedicals, Waltham, MA, USA), and 10% of fetal bovine serum (Biolot, Saint Petersburg, Russia) in a 5% CO2 atmosphere. After the formation of a 30–50%-monolayer, the tested compounds were added to the medium. The volume of the added reagents was 1/100 of the total volume of the culture medium, and the amount of DMSO was 1% of the final volume. Control cells were grown in the presence of 1% DMSO. The cell culture was monitored for 3 days.

HeLa cells [3] = assay: as above; format: cell-based, human
Method: as §1, §2

HeLa cells [4] = assay: Sensitization of cells to topotecan cytotoxicity by Tdp1 inhibitors; format: cell-based, human; conditions: inhibitor at 20 μM, varied topotecan concentrations; Mann-Whitney U-test, p = 0.05
Method: In this work, we also tested the ability of the berberrubine sultones to sensitize cells to the action of topotecan. For this, we chose a non-toxic concentration of Tdp1 inhibitors at 20 μM and varied the concentrations of topotecan.
as §2

[5] = biological target: T1, tyrosyl-DNA phosphodiesterase 1 (Tdp1); conditions: previous work of the group; read-out: Tdp1 IC50 of previously synthesized berberine derivatives; cited from earlier work

T1 sequence (Q9NUW8 whole entry): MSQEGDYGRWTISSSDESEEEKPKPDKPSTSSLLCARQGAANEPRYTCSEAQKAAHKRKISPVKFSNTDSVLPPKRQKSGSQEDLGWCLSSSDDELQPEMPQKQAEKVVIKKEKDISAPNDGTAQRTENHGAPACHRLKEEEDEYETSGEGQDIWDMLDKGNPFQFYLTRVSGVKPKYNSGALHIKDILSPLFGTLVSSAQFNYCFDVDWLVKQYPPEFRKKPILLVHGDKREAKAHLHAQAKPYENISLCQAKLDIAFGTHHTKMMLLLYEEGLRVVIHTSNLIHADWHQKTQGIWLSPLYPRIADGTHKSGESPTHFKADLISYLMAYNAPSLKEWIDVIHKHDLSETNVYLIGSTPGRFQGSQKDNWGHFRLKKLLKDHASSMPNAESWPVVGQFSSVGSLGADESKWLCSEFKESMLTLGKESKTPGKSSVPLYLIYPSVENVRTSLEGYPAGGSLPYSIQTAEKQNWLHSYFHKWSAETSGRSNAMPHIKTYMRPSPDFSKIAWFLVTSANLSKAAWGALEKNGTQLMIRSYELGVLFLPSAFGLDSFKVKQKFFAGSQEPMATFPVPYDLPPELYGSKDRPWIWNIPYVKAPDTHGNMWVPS

Row | Compound | IC50 [1] | CC50 at 3 days [2] | also measured
1 | COc1ccc2c3c1OS(=O)(=O)CC3N1CCc3cc4c(cc3C1=C2)OCO4 (stereo not drawn) [10a, 19-Methoxy-8,10,21-trioxa-22λ⁶-thia-2-azahexacyclo[14.7.1.0^2,¹⁴.0⁵,¹^3.0⁷,¹¹.0^2⁰,^2⁴]tetracosa-5,7(11),12,14,16,18,20(24)-heptaene-22,22-dione] | 1.53 ± 0.18 µM | > 100 µM | –
2 | COc1ccc2c3c1OS(=O)(=O)C(C)C3N1CCc3cc4c(cc3C1=C2)OCO4 (stereo not drawn) [10b, 19-Methoxy-23-methyl-8,10,21-trioxa-22λ⁶-thia-2-azahexacyclo[14.7.1.0^2,¹⁴.0⁵,¹^3.0⁷,¹¹.0^2⁰,^2⁴]tetracosa-5,7(11),12,14,16,18,20(24)-heptaene-22,22-dione] | 2.13 ± 0.16 µM | > 100 µM | –
3 | CCC1C2c3c(ccc(OC)c3OS1(=O)=O)C=C1c3cc4c(cc3CCN12)OCO4 (stereo not drawn) [10c, 23-Ethyl-19-methoxy-8,10,21-trioxa-22λ⁶-thia-2-azahexacyclo[14.7.1.0^2,¹⁴.0⁵,¹^3.0⁷,¹¹.0^2⁰,^2⁴]tetracosa-5,7(11),12,14,16,18,20(24)-heptaene-22,22-dione] | 5.5 ± 0.1 µM | > 100 µM | –
4 | CCCC1C2c3c(ccc(OC)c3OS1(=O)=O)C=C1c3cc4c(cc3CCN12)OCO4 (stereo not drawn) [10d, 19-Methoxy-23-propyl-8,10,21-trioxa-22λ⁶-thia-2-azahexacyclo[14.7.1.0^2,¹⁴.0⁵,¹^3.0⁷,¹¹.0^2⁰,^2⁴]tetracosa-5,7(11),12,14,16,18,20(24)-heptaene-22,22-dione] | 1.12 ± 0.18 µM | > 100 µM | –
5 | COc1ccc2c3c1OS(=O)(=O)C=C3N1CCc3cc4c(cc3C1=C2)OCO4 [16a, 19-Methoxy-8,10,21-trioxa-22λ⁶-thia-2-azahexacyclo[14.7.1.0^2,¹⁴.0⁵,¹^3.0⁷,¹¹.0^2⁰,^2⁴]tetracosa-1(23),5,7(11),12,14,16,18,20(24)-octaene-22,22-dione] | 2.5 ± 0.4 µM | ~100 µM | concentration above which toxic to HeLa cells (HeLa cells [3]; human, 3 days): above 20 μM
6 | COc1cc(Br)c2c3c1OS(=O)(=O)CC3N1CCc3cc4c(cc3C1=C2)OCO4 (stereo not drawn) [18a, 17-Bromo-19-methoxy-8,10,21-trioxa-22λ⁶-thia-2-azahexacyclo[14.7.1.0^2,¹⁴.0⁵,¹^3.0⁷,¹¹.0^2⁰,^2⁴]tetracosa-5,7(11),12,14,16,18,20(24)-heptaene-22,22-dione] | 0.925 µM and 0.92 µM | > 100 µM | –
7 | COc1cc(Br)c2c3c1OS(=O)(=O)C(C)C3N1CCc3cc4c(cc3C1=C2)OCO4 (stereo not drawn) [18b, 17-Bromo-19-methoxy-23-methyl-8,10,21-trioxa-22λ⁶-thia-2-azahexacyclo[14.7.1.0^2,¹⁴.0⁵,¹^3.0⁷,¹¹.0^2⁰,^2⁴]tetracosa-5,7(11),12,14,16,18,20(24)-heptaene-22,22-dione] | 1.13 ± 0.2 µM | > 100 µM | –
8 | CCC1C2c3c(c(Br)cc(OC)c3OS1(=O)=O)C=C1c3cc4c(cc3CCN12)OCO4 (stereo not drawn) [18c, 17-Bromo-23-ethyl-19-methoxy-8,10,21-trioxa-22λ⁶-thia-2-azahexacyclo[14.7.1.0^2,¹⁴.0⁵,¹^3.0⁷,¹¹.0^2⁰,^2⁴]tetracosa-5,7(11),12,14,16,18,20(24)-heptaene-22,22-dione] | 0.56 ± 0.02 µM | > 100 µM | sensitizing effect on topotecan cytotoxicity (HeLa cells [4]): most pronounced and statistically significant; also recorded: enhances the cytotoxic effect of topotecan
9 | CCCC1C2c3c(c(Br)cc(OC)c3OS1(=O)=O)C=C1c3cc4c(cc3CCN12)OCO4 (stereo not drawn) [18d, 17-Bromo-19-methoxy-23-propyl-8,10,21-trioxa-22λ⁶-thia-2-azahexacyclo[14.7.1.0^2,¹⁴.0⁵,¹^3.0⁷,¹¹.0^2⁰,^2⁴]tetracosa-5,7(11),12,14,16,18,20(24)-heptaene-22,22-dione] | 0.78 ± 0.03 µM | > 100 µM | –
10 | COc1ccc2c(c1OS(C)(=O)=O)CN1CCc3cc4c(cc3C1C2)OCO4 (stereo not drawn) [21a] | – | – | IC50 [5]: > 15 µM
11 | CCS(=O)(=O)Oc1c(OC)ccc2c1CN1CCc3cc4c(cc3C1C2)OCO4 (stereo not drawn) [21b] | – | – | IC50 [5]: > 15 µM
12 | COc1ccc2cc3[n+](cc2c1OC)CCc1cc2c(cc1-3)OCO2 [berberine 1, berberine] | – | – | CC50 at 3 days ([2]; HeLa cells, EZ4U test, 3 days, read-out: CC50 HeLa): 20 µM; concentration above which toxic to HeLa cells (HeLa cells [3]; HeLa cells): above 20 μM
